Measured values as given in US7078499B2, “Nucleotide analogues comprising a reporter moiety and a polymerase enzyme blocking moiety” (GE Healthcare UK Limited, priority 2000, dated 2006).

Assays:
Format in all cases: biochemical
T4 DNA polymerase = molecular target: T1, T4 DNA polymerase (Enterobacteria phage T4, UniProt P04415); assay: Mesophilic DNA polymerase primer extension, T4; design: key to result of incorporation (termination / further chain extension): T: Incorporation results in termination; E: Incorporation permits further chain extension; T/E: Predominant product is primer extended by one base, but evidence of some further extension also observed; conditions: DNA template, 37° C. for 20–40 minutes; for primer extended by at least one base within assay time (grade): TTP replaced entirely by test compound
T1 construct: purchased AP Biotech
T1 sequence (P04415 1-898): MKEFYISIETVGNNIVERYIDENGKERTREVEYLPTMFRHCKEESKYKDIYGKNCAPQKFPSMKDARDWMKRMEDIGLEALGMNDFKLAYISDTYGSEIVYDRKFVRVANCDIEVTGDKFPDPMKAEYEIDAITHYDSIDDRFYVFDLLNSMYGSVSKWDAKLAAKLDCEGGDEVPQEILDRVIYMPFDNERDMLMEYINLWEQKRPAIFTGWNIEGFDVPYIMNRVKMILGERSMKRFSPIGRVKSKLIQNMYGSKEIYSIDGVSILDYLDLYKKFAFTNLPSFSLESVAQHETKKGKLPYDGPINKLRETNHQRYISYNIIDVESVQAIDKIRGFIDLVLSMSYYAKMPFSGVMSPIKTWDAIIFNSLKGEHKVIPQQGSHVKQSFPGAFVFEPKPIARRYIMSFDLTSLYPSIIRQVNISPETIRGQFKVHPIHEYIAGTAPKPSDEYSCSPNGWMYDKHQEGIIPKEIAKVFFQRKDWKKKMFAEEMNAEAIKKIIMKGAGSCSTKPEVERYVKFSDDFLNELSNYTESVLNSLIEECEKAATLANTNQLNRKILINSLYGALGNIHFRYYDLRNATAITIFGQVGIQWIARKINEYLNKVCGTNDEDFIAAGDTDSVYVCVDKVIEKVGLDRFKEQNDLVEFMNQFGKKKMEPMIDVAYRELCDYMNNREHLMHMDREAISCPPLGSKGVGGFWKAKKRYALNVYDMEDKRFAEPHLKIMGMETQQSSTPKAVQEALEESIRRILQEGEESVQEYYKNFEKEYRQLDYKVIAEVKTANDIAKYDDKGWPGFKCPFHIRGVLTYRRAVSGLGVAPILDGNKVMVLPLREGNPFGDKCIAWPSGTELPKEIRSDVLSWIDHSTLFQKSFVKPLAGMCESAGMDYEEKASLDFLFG
Experimental: (§1) DNA polymerase assays were performed using Sequence 1 as primer and Sequence 2 as template. • Sequence 1 5′[Cy3]TAACTCATTAACAGGATC 3′ • Sequence 2 5′AT TCGCGGTATTCTGGTATGAAGCTTTTAGATCCTGTTAATGAGTTA GTA3′
(§2) The template (Sequence 2) was designed such that the base (underlined) immediately adjacent to the 3′ end of the hybridised primer is complementary to the nucleotide test compound. Nucleotide test compounds were compounds (6) (4′-C-(glycylaminomethyl)thymidine triphosphate), (8) (4′-C-(N-trifluoroacetyaminomethyl)thymidine triphosphate) and (9) (4′-C-(aminomethyl)thymidine triphosphate) as described above.
(§3) Primer extension reactions were performed using the above primers in the presence of 40 to 80 μM of nucleotide triphosphates. Positive control reactions contained all four native nucleotide triphosphates. For the other reactions the TTP was replaced with either a 2:1 ratio of […] for the terminator control, or entirely by the test compound The enzymes were used at a final concentration of 0.175 units/μl and a magnesium ion concentration of 2.5 mM in buffers supplied by the manufacturer. The primer and template concentrations were 0.5 pmol/μl and 2 pmol/μl respectively.
Extension reactions preformed with mesophilic polymerases were carried out by mixing all the components of the reaction except the enzyme and heating to 70° C. for 5 min. After the reactions had cooled to room temperature 0.175 units of the enzyme were added and the reactions heated to 37° C. for 20–40 minutes. The following enzymes were used: T7 DNA polymerase (T7); Sequenase 2™ (Seq); Klenow fragment of DNA polymerase 1 (Klen); phi-29 DNA polymerase (Phi-29); T4 DNA polymerase (T4) (all from AP Biotech) and Bst DNA polymerase (Bst) (Cambio Ltd).
(§4) The reactions were stopped by adding a 0.5 volume aliquot of 80% formamide containing 0.1% (w/v) bromophenol blue and 0.1% (w/v) cresol blue. The reaction products were separated by denaturing gel electrophoresis at a constant power of 45 W on 16% polyacrylamide gels containing 50% urea.
(§5) Gels were scanned for Cy3 fluorescence on a Molecular Dynamics Fluorimager and the data analysed using Molecular Dynamics ImageQuant 5 software.
(§6) The incorporation of a test nucleotide triphosphate results in the appearance on a polyacrylamide gel of a single band corresponding to a single base extension product. If, however, the enzyme adds additional bases then further bands would be observed that corresponded to either the full-length product or positions of other complementary bases in the template.

delta Tts DNA polymerase = assay: Thermostable polymerase under reverse transcription conditions, delta Tts; design: key to result of incorporation (termination / further chain extension): T: Incorporation results in termination; E: Incorporation permits further chain extension; T/E: Predominant product is primer extended by one base, but evidence of some further extension also observed; key to primer extended by at least one base within assay time (grade): −: No extension within assay time; +/−: up to 25% of primer extended by at least one base within assay time; +: up to 50% of primer extended by at least one base within assay time; ++: up to 75% of primer extended by at least one base within assay time; +++: essentially all primer extended by at least one base within assay time; conditions: RNA template, 2.5 mM Manganese ions; for primer extended by at least one base within assay time (grade): Tth reaction buffer
Experimental: as §1, §2, §3
(§7) Extension reactions with thermophilic enzymes were performed by initially denaturing the fully assembled reactions at 70° C. for 5 min. followed by 45° C. for 20–40 minutes. The following enzymes were used: Taq DNA polymerase (Taq); Thermosequenase (TS); Thermosequenase II (TSII); Thermosequenase E (TSE), Tfl DNA polymerase (Tfl); Tth DNA polymerase (Tth), deltaTts DNA polymerase (deltaTts), deltaTts D DNA polymerase (dettaTTSD) (all from APBiotech); Pfu DNA polymerase (Pfu) (Stratagene Ltd); Vent™ DNA polymerase (Vent) (New England Biolabs).
Reverse transcriptase reactions were performed essentially as described above for thermophilic and mesophilic enzymes. The template for these reactions was the RNA equivalent of sequence 2. All the thermophilic enzymes were assayed in Tth reaction buffer (Cambio Ltd, Cambridge UK) containing 2.5 mM Manganese ions. The following enzymes were used: Thermosequenase (TS1); Thermosequenase II (TSII); delta Tts DNA polymerase (deltaTts); delta Tts D DNA polymerase (deltaTtsD) (all from APBiotech); Retrotherm reverse transcriptase (Retroth) (Cambio Ltd); Tth DNA polymerase (Tth) (Cambio Ltd.).
as §4, §5, §6

Tfl DNA polymerase = molecular target: T2, Tfl DNA polymerase (Thermus thermophilus, UniProt P30313); assay: Thermostable DNA polymerase primer extension, Tfl; design: key to result of incorporation (termination / further chain extension): T: Incorporation results in termination; E: Incorporation permits further chain extension; T/E: Predominant product is primer extended by one base, but evidence of some further extension also observed; conditions: DNA template, 45° C. for 20–40 minutes; for primer extended by at least one base within assay time (grade): TTP replaced entirely by test compound
T2 construct: purchased APBiotech
Experimental: as §1, §2, §3, §7, §4, §5, §6

T2 sequence (P30313 whole entry): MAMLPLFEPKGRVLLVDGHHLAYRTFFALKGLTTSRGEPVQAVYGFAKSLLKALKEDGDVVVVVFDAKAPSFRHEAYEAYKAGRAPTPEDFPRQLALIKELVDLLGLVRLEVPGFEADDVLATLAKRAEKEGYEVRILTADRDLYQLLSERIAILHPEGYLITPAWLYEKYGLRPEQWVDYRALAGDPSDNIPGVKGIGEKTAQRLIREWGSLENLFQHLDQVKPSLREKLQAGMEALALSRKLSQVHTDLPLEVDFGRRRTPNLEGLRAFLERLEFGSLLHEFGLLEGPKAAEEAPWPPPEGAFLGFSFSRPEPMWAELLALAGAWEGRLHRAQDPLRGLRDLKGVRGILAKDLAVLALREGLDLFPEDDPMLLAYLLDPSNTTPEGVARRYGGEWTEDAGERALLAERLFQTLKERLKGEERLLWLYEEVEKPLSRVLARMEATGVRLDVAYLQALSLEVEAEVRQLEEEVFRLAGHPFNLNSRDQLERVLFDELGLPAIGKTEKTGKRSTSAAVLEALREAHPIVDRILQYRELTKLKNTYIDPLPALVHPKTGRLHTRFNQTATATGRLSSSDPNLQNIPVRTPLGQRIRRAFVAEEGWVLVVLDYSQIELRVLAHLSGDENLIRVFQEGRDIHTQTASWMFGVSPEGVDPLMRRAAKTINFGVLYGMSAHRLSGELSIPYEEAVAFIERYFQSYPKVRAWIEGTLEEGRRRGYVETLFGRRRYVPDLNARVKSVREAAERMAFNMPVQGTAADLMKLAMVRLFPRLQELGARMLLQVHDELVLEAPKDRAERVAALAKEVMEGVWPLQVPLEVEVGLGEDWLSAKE

| Compound | result of incorporation (termination / further chain extension) (T4 DNA polymerase) | primer extended by at least one base within assay time (grade) (T4 DNA polymerase) | result of incorporation (termination / further chain extension) (delta Tts DNA polymerase) | primer extended by at least one base within assay time (grade) (delta Tts DNA polymerase) | result of incorporation (termination / further chain extension) (Tfl DNA polymerase) | primer extended by at least one base within assay time (grade) (Tfl DNA polymerase) |
| --- | --- | --- | --- | --- | --- | --- |
| 4′-C-(Aminomethyl)thymidine triphosphate [compound (9)] | T | + (up to 50% of primer extended by at least one base within assay time) | T | +++ | T | +/− (up to 25% of primer extended by at least one base within assay time) |
| Cc1cn([C@H]2C[C@H](O)[C@@](CNC(=O)C(F)(F)F)(COP(=O)(O)OP(=O)(O)OP(=O)(O)O)O2)c(=O)[nH]c1=O [compound (8), 4′-C-(N-trifluoroacetylaminomethyl)thymidine triphosphate] | T | + (up to 50% of primer extended by at least one base within assay time) | T | +++ | T | +/− (up to 25% of primer extended by at least one base within assay time) |
| 4′-C-(Glycylaminomethyl)thymidine triphosphate [compound (6)] | T | + (up to 50% of primer extended by at least one base within assay time) | T | +++ | T | +/− (up to 25% of primer extended by at least one base within assay time) |
